This is an account of results in patent US11155567B2, “Sting agonist compounds and methods of use” (Mersana Therapeutics, Inc., priority 2019, dated 2021).

T2 sequence (Q86WV6 whole entry R71H/G230A/H232R/R293Q): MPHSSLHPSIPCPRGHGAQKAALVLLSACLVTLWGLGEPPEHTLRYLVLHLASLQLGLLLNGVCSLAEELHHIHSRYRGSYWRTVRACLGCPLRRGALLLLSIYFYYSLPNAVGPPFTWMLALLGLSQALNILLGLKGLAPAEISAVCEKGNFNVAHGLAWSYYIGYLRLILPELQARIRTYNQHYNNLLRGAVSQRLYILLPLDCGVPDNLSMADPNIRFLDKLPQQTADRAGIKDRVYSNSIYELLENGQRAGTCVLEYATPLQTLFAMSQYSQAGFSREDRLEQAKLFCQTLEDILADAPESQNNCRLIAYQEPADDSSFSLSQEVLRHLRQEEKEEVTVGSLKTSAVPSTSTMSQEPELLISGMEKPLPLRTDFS

The first experiment deals with T1, Human STING (HAQ allele) (Homo sapiens, UniProt Q86WV6, G230A/H232R/R293Q/R71H).
T1 construct: THP1-Dual™ Human Monocytes cells with the homozygous HAQ allele; host or cells: THP1-Dual human monocytes
T1 sequence (Q86WV6 whole entry R71H/G230A/H232R/R293Q): as above
Description: IRF3 reporter induction in THP1-Dual Human Monocytes cells (homozygous HAQ STING allele). It counts as cell-based. The note with it: IRF3 reporter (secreted luciferase), 24 hours incubation. The method, then: THP1-Dual™ Human Monocytes cells with the homozygous HAQ allele, known to be a natural variant allele of STING occurring in 20% of the human population (Invivogen) have been engineered with two independent gene reporter systems: a secreted embryonic alkaline phosphatase (SEAP) reporter gene for NFkB activity, and secreted luciferase reporter for […] (IRF3) activity were used. 4×10^5 THP1-Dual™ cells were incubated with test Compounds in a 5-fold titration steps from 1 to 0.0128 μM in RPMI media with 10% FBS, for 24 hours at 37° C. with 5% CO2. Cell culture supernatants (20 μl) from each incubated sample was added to resuspended QUANTI-Blue™ Solution (Invivogen, 180 μl) in each well of a flat-bottom 96-well plate, then incubated for 2 h. NFkB levels were evaluated using a spectrophotometer at 620-655 nm.
(§1) To evaluate IRF3 reporter levels, cell culture supernatant (20 μl) from each incubated sample was added to QUANTI-Luc™ assay solution (Invivogen, 50 μl), and the luminescence was measured with a SpectraMax M3 spectrophotometer (Molecular Devices).
The EC50 value was determined from the dose response curve based on reference Compounds. Table 2a provides the results for IRF3 reporter induction THP1-Dual™ Human Monocytes cells and Table 2b provides the results for IRF3 reporter induction in THP1-Dual™ KI-hSTING-H232 Cells and THP1-Dual™ KI-hSTING-R232 Cells (“A” means <30 nM; “B” means ≥30 nM and <100 nM; “C” means ≥100 nM).
As usually defined, the EC50 is the concentration that produces a half-maximal response. A lower EC50 goes with higher potency in that assay. With `CCc1nc(C)oc1C(=O)Nc1nc2cc(C(N)=O)cc(OC)c2n1C/C=C/Cn1c(NC(=O)c2oc(C)nc2CC)nc2cc(C(N)=O)cc(OCCCN)c21` [compound 18], the concentration giving a half-maximal response (EC50) lay in the range of 30 to 100 nM.

For `CCc1nc(C)oc1C(=O)Nc1nc2cc(C(N)=O)cc(OC)c2n1C/C=C/Cn1c(NC(=O)c2cc(C)nn2CC)nc2cc(C(N)=O)cc(OCCCO)c21` [compound 43], the 50% effective concentration (EC50) is less than 30 nM.

Turning to `CCc1nn(C)cc1C(=O)Nc1nc2cc(C(N)=O)cc(OCCCO)c2n1C/C=C/Cn1c(NC(=O)c2cc(C)nn2CC)nc2cc(C(N)=O)ccc21` [compound 53], the EC50 is not below 100 nM.

Regarding `CCn1nc(C)cc1C(=O)/N=c1\sc2cc(C(N)=O)cc(OC)c2n1C/C=C/Cn1c(NC(=O)c2cc(C)nn2CC)nc2cc(C(N)=O)cc(OCCCO)c21` [compound 65], the concentration for a half-maximal effect (EC50) is less than 30 nM.

Regarding `CCc1nc(C)oc1C(=O)Nc1nc2cc(C(N)=O)cnc2n1C/C=C/Cn1c(NC(=O)c2oc(C)nc2CC)nc2cc(C(N)=O)cc(OCCCC(=O)O)c21` [compound 97], the EC50 was not below 100 nM.

The next experiment concerns the target T2, Human STING (Homo sapiens, UniProt Q86WV6, G230A/H232R/R293Q/R71H).
T2 construct: host or cells: THP1-Dual cells, digitonin-permeabilized
Nature of the experiment: Activation of human STING signaling in permeabilized THP1 cells, IRF3 induction. The class given is cell-based. The note with it: THP1-Dual cells permeabilized with digitonin buffer 30 minutes on ice, then 24 h in RPMI media. How it is done: as §1
4×10^5 THP1-Dual™ cells (NF-κB-SEAP and IRF-Lucia luciferase Reporter Monocytes, Invivogen) were incubated with test Compounds in a 5-fold titration steps from […] in permeabilized buffer (50 mM HEPES pH 7.0, 100 mM KCl, 3 mM MgCl2, 85 mM sucrose, 0.2% BSA, 1 mM ATP, 0.1 mM GTP, 0.1 mM TTP, 1 μg/ml digitonin) for 30 minutes on ice. Cells were then washed and incubated in a fresh RPMI media with 10% FBS at 37° C. with 5% CO2 for 24 h. Cell culture supernatants from each sample were collected and NFkB and IRF3 were evaluated as above. Table 3 provides the results for IRF3 induction (“A” means <1 μM; “B” means ≥1 μM and <50 μM; “C” means ≥50 μM).
In turn, `COc1cc(C(N)=O)cc2nc(NC(=O)c3cc4ncccc4o3)n(C/C=C/Cn3c(NC(=O)c4cc5ncccc5o4)nc4cc(C(N)=O)cc(OCCCO)c43)c12` [compound 14] came in with an EC50 not below 50000 nM.

`COc1cc(C(N)=O)cc2nc(NC(=O)c3nccn3C(C)C)n(C/C=C/Cn3c(NC(=O)c4nccn4C(C)C)nc4cc(C(N)=O)cc(OCCCO)c43)c12` [compound 15] gave an EC50 not below 50000 nM.

As to `COc1cc(C(N)=O)cc2nc(NC(=O)c3cnc(C)n3C)n(C/C=C/Cn3c(NC(=O)c4cnc(C)n4C)nc4cc(C(N)=O)cc(OCCCO)c43)c12` [compound 16], the EC50 is not below 50000 nM.

The compound `COc1cc(C(N)=O)cc2nc(NC(=O)c3cnc(C(F)(F)F)s3)n(C/C=C/Cn3c(NC(=O)c4cnc(C(F)(F)F)s4)nc4cc(C(N)=O)cc(OCCCO)c43)c12` [compound 17] came in with a half-maximal effective concentration (EC50) not below 50000 nM.

The compound `CCc1nc(C)oc1C(=O)Nc1nc2cc(C(N)=O)cc(OC)c2n1C/C=C/Cn1c(NC(=O)c2oc(C)nc2CC)nc2cc(C(N)=O)cc(OCCCN)c21` [compound 18] registered an EC50 of less than 1000 nM.

Turning to `CCc1nc(C)oc1C(=O)Nc1nc2cc(C(N)=O)cc(OC)c2n1C/C=C/Cn1c(NC(=O)c2oc(C)nc2CC)nc2cc(C(N)=O)cc(OCCCC(=O)O)c21` [compound 19], the concentration giving a half-maximal response (EC50) is less than 1000 nM.

`Cc1cc(C(=O)Nc2nc3cc(C(N)=O)ccc3n2C/C=C/Cn2c(NC(=O)c3cc(C)on3)nc3cc(C(N)=O)cc(OCCCO)c32)no1` [compound 26]: the EC50 was less than 1000 nM.

The compound `Cn1nncc1C(=O)Nc1nc2cc(C(N)=O)ccc2n1C/C=C/Cn1c(NC(=O)c2cnnn2C)nc2cc(C(N)=O)cc(OCCCO)c21` [compound 27] displayed an EC50 not below 50000 nM.

For `NC(=O)c1ccc2c(c1)nc(NC(=O)c1cocn1)n2C/C=C/Cn1c(NC(=O)c2cocn2)nc2cc(C(N)=O)cc(OCCCO)c21` [compound 28], the EC50 is not below 50000 nM.

Compound `CCc1nc(C)oc1C(=O)Nc1nc2cc(C(N)=O)cc(OCCCO)c2n1C/C=C/Cn1c(NC(=O)c2cc(C)nn2CC)nc2cc(C(N)=O)cc(OC)c21` [compound 36] returned an EC50 of less than 1000 nM.

Take `CCc1nc(C)oc1C(=O)Nc1nc2cc(C(N)=O)cc(OCCCO)c2n1C/C=C/Cn1c(NC(=O)c2sc(C)nc2CC)nc2cc(C(N)=O)cc(OC)c21` [compound 37]: the EC50 is less than 1000 nM.

Consider `CCc1nc(C)sc1C(=O)Nc1nc2cc(C(N)=O)cc(OCCCO)c2n1C/C=C/Cn1c(NC(=O)c2cc(C)nn2CC)nc2cc(C(N)=O)cc(OC)c21` [compound 38], for which the EC50 was less than 1000 nM.

Consider `CCc1nn(C)cc1C(=O)Nc1nc2cc(C(N)=O)cc(OCCCO)c2n1C/C=C/Cn1c(NC(=O)c2cc(C)nn2CC)nc2cc(C(N)=O)cc(OC)c21` [compound 39], for which the EC50 was less than 1000 nM.

In turn, `CCc1nc(C)oc1C(=O)Nc1nc2cc(C(N)=O)cc(OC)c2n1C/C=C/Cn1c(NC(=O)c2sc(C)nc2CC)nc2cc(C(N)=O)cc(OCCCO)c21` [compound 40] displayed a concentration for a half-maximal effect (EC50) of less than 1000 nM.

With `CCc1nc(C)n(C)c1C(=O)Nc1nc2cc(C(N)=O)cc(OCCCO)c2n1C/C=C/Cn1c(NC(=O)c2cc(C)nn2CC)nc2cc(C(N)=O)cc(OC)c21` [compound 41], the EC50 is not below 50000 nM.

Take `CCc1nc(C)oc1C(=O)Nc1nc2cc(C(N)=O)cc(OC)c2n1C/C=C/Cn1c(NC(=O)c2cc(C)nn2CC)nc2cc(C(N)=O)cc(OCCCO)c21` [compound 43]: the EC50 is less than 1000 nM.

In turn, `CCc1nc(C)oc1C(=O)Nc1nc2cc(C(N)=O)cc(OCCCO)c2n1C/C=C/Cn1c(NC(=O)c2cc(C)nn2CC)nc2cc(C(N)=O)ccc21` [compound 51] showed an EC50 of less than 1000 nM.

The compound `CCc1nc(C)sc1C(=O)Nc1nc2cc(C(N)=O)cc(OCCCO)c2n1C/C=C/Cn1c(NC(=O)c2cc(C)nn2CC)nc2cc(C(N)=O)ccc21` [compound 52] registered an EC50 of less than 1000 nM.

The compound `CCc1nn(C)cc1C(=O)Nc1nc2cc(C(N)=O)cc(OCCCO)c2n1C/C=C/Cn1c(NC(=O)c2cc(C)nn2CC)nc2cc(C(N)=O)ccc21` [compound 53] returned an EC50 of less than 1000 nM.

In turn, `CCc1ncoc1C(=O)/N=c1\sc2cc(C(N)=O)cc(OC)c2n1C/C=C/Cn1c(NC(=O)c2ocnc2CC)nc2cc(C(N)=O)cc(OCCCO)c21` [compound 64] came in with a concentration for a half-maximal effect (EC50) not below 50000 nM.

For `CCn1nc(C)cc1C(=O)/N=c1\sc2cc(C(N)=O)cc(OC)c2n1C/C=C/Cn1c(NC(=O)c2cc(C)nn2CC)nc2cc(C(N)=O)cc(OCCCO)c21` [compound 65], the EC50 was less than 1000 nM.

`CCn1nc(C)cc1C(=O)/N=c1\sc2cc(C(N)=O)cc(OC)c2n1C/C=C/Cn1c(NC(=O)c2cc(C)nn2CC)nc2cc(C(N)=O)cc(OCCCN)c21` [compound 67] registered an EC50 of less than 1000 nM.

`CCc1nc(C)oc1C(=O)/N=c1\sc2cc(C(N)=O)cc(OC)c2n1C/C=C/Cn1c(NC(=O)c2sc(C)nc2CC)nc2cc(C(N)=O)cc(OCCCO)c21` [compound 70] yielded an EC50 not below 50000 nM.

Consider `CCn1nc(C)cc1C(=O)/N=c1\sc2cc(C(N)=O)cc(OC)c2n1C/C=C/Cn1c(NC(=O)c2ncnn2C(C)C)nc2cc(C(N)=O)cc(OCCCO)c21` [compound 71], for which the EC50 is 1000 to 50000 nM.

On to `CCn1nc(C)cc1C(=O)/N=c1\sc2cc(C(N)=O)cc(OC)c2n1C/C=C/Cn1c(NC(=O)C2=C(C)OCC2)nc2cc(C(N)=O)cc(OCCCO)c21` [compound 75], for which the concentration giving a half-maximal response (EC50) is not below 50000 nM.

For `CCc1nc(C)oc1C(=O)Nc1nc2cc(C(N)=O)cc(OCCCO)c2n1C/C=C/Cn1/c(=N/C(=O)c2sc(C)nc2CC)sc2cc(C(N)=O)cc(OC)c21` [compound 76], the EC50 is less than 1000 nM.

In turn, `CCn1nc(C)cc1C(=O)Nc1nc2cc(C(N)=O)cnc2n1C/C=C/Cn1c(NC(=O)c2cc(C)nn2CC)nc2cc(C(N)=O)cnc21` [compound 84] yielded an EC50 of less than 1000 nM.

`CCc1nc(C)oc1C(=O)Nc1nc2cc(C(N)=O)cnc2n1C/C=C/Cn1c(NC(=O)c2oc(C)nc2CC)nc2cc(C(N)=O)cnc21` [compound 85] returned a concentration giving a half-maximal response (EC50) of 1000 to 50000 nM.

In turn, `CCn1nc(C)cc1C(=O)Nc1nc2cc(C(N)=O)cnc2n1C/C=C/Cn1c(NC(=O)c2cc(C)nn2CC)nc2cc(C(N)=O)cc(Br)c21` [compound 89] gave an EC50 of less than 1000 nM.

For the compound `CCc1nc(C)oc1C(=O)Nc1nc2cc(C(N)=O)cnc2n1C/C=C/Cn1c(NC(=O)c2oc(C)nc2CC)nc2cc(C(N)=O)cc(Br)c21` [compound 90], the concentration giving a half-maximal response (EC50) is less than 1000 nM.

Regarding `CCn1nc(C)cc1C(=O)Nc1nc2cc(C(N)=O)cnc2n1C/C=C/Cn1c(NC(=O)c2cc(C)nn2CC)nc2cc(C(N)=O)cc(OCCCO)c21` [compound 94], the concentration giving a half-maximal response (EC50) is less than 1000 nM.

Consider `CCc1nc(C)oc1C(=O)Nc1nc2cc(C(N)=O)cnc2n1C/C=C/Cn1c(NC(=O)c2oc(C)nc2CC)nc2cc(C(N)=O)cc(OCCCN)c21` [compound 96], for which the EC50 is less than 1000 nM.

`CCc1nc(C)oc1C(=O)Nc1nc2cc(C(N)=O)cnc2n1C/C=C/Cn1c(NC(=O)c2oc(C)nc2CC)nc2cc(C(N)=O)cc(OCCCC(=O)O)c21` [compound 97] displayed a concentration for a half-maximal effect (EC50) of less than 1000 nM.

In turn, `CCn1nc(C)cc1C(=O)/N=c1\sc2cc(C(N)=O)cnc2n1C/C=C/Cn1c(NC(=O)c2cc(C)nn2CC)nc2cc(C(N)=O)cc(OCCCO)c21` [compound 110] returned a half-maximal effective concentration (EC50) of less than 1000 nM.
